Here are results for 1 molecule from publication PMC11219860, “A chemogenetic approach for dopamine imaging with tunable sensitivity” (Nature Communications, 2024).

Where two headings read alike, the source gives them in different places.

One assay addresses dLight1.3bL143I (Homo sapiens, UniProt P21728, L143I). Kind of assay: cell-based. It counts as cell-based. As for the experimental part: Cells were transfected at 50–60% confluency in glass-bottomed dishes (either individually or in 24-well plates) using the Effectene transfection kit (Qiagen) according to manufacturer instructions, and imaged 24–48 h after transfection. The Flp-In™ T-REx™ 293 cells (Thermo Fisher) with a stably integrated dLight1.3b cassette[48] were cultured as follows: the cells were cultured using HEK293T cell medium with the addition of Blasticidin (15 µg/ml) and Hygromycin B (200 µg/ml). To induce the expression of dLight1.3b, doxycycline (500 ng/ml) was added to the culture medium for 24–48 hours. Before imaging, cells were rinsed with 1 mL of Hank’s Balanced Salt Solution (HBSS, Life Technologies) supplemented with Ca^2+ (2 mM) and Mg^2+ (1 mM), and imaged at room temperature with a final HBSS volume of either 100 µL for each individual 1.5 cm glass bottom dish, or 500 µL for 24-well plates. Time-lapse imaging was performed on an inverted Zeiss LSM 800 confocal microscope using a 488 nm laser and a 40X oil-based objective. During imaging, ligands were added in bolus on the cells using a micropipette to reach the final specified concentrations of ligand over the cells. For quantification, except otherwise noted, regions of interest (ROI) were selected manually using the threshold function of Fiji to isolate the cell membrane. Sensor response (∆F/F) was calculated as the following: (F(t)-F_base)/F_base with F(t) being the ROI fluorescence value at each time point (t), and F_base being the mean fluorescence of the 10-time points immediately prior to ligand addition.

Assay [1] deals with T1, mouse DA transporter (DAT) (Mus musculus, UniProt Q61327).
T1 construct: Lack of DETQ effect on the endogenous DA transporter; from tissue; host or cells: mouse striatal brain slices
T1 sequence (Q61327 whole entry): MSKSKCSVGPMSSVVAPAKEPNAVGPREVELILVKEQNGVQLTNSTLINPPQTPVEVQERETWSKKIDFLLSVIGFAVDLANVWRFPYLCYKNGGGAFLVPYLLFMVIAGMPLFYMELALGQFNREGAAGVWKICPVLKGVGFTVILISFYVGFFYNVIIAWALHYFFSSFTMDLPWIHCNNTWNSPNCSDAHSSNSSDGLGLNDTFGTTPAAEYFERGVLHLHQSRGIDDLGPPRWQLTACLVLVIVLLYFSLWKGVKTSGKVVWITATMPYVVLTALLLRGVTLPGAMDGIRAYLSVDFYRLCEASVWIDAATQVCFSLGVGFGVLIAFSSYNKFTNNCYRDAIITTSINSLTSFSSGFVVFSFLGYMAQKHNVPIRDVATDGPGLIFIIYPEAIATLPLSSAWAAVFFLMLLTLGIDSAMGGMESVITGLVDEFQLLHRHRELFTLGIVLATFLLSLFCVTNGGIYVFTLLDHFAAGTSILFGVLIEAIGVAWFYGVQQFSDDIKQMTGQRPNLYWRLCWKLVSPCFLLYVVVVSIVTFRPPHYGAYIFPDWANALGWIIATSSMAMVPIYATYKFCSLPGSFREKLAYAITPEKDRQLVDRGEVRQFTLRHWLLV
In words: Fast-scan cyclic voltammetry of DA release in striatal slices. Conditions: bath application: DETQ 200 nM; cocaine 5 µM. As for the experimental part: Striatal DA release was measured using fast-scan cyclic voltammetry (FSCV) with a carbon fiber electrode (CFE; diameter 7 µm, length 50–100 µm) positioned approximately 100 µm below the surface of the slice. The CFE was scanned across a triangular waveform (−0.4 to +1.3 V, 400 V/s) at 10 Hz, and DA release was evoked by single-pulse electrical stimulation (30 µA, 0.5 ms) with an inter-stimulus interval of 180 s. DA release was evoked in the presence of DHBE (1 µM) to block nicotinic acetylcholine receptors. Peak background-subtracted DA oxidation current was measured at +0.6 V, and drugs were washed on after establishing a stable baseline.

A further assay is described as follows: Open field behavior. It counts as in vivo, mouse. How it is done: For combined locomotion/photometry experiments in the open field (OF) in tethered mice, a 50 × 50 cm arena was used. Fiber photometry was conducted using a Doric photometry rig combined with a filter/mirror minicube set (Doric Lenses), as above. […] Data were sampled at 122 Hz. […] Mice were habituated to the chamber for 3 consecutive days (30 minutes per day). On experimental days, locomotor activity was video recorded and synchronized with fiber photometry signal recording. The baseline DA signal was recorded for 20 minutes, then the mouse received i.p. injection of vehicle or DETQ (10 mg/kg) in interleaved sessions. Following injection, the DA signal was recorded for an additional 90 minutes. The OF chamber was cleaned with ethanol and water between mice. Recording sessions were repeated at 48 hours intervals. Mouse behavior as well as photometry signals were analyzed with a custom-written MATLAB script. Mouse locomotion was computed using the body center point of the animal. The center zone of the arena was defined automatically during behavior data analysis as the 25 × 25 cm square with the central point aligned to the center of the open field. The distance moved and time spent in the center zone were quantified in 10 minutes time bins and as the total during the 90 minutes after ip injections. To test the dose-dependent effects of DETQ on locomotion in untethered mice, mice were injected i.p. with vehicle, DETQ (3, 10 or 30 mg/kg) or cocaine (20 mg/kg) while their locomotor activity was recorded in an OF arena (60 x 60 cm) for 45 min. Videos were recorded with a Logitech C270 camera and analyzed with DeepLabCut (version 2.1.8.2)[84] on an existing open field network. Representative traces were generated with the Anymaze (v7.2) software (Stoelting Co.).

On the set-up of assay [2]: method as in Bruns et al., 2018. The note with it: ref Bruns et al., 2018, cited from earlier work.

Sequence of dLight1.3bL143I (P21728 whole entry L143I, looked up): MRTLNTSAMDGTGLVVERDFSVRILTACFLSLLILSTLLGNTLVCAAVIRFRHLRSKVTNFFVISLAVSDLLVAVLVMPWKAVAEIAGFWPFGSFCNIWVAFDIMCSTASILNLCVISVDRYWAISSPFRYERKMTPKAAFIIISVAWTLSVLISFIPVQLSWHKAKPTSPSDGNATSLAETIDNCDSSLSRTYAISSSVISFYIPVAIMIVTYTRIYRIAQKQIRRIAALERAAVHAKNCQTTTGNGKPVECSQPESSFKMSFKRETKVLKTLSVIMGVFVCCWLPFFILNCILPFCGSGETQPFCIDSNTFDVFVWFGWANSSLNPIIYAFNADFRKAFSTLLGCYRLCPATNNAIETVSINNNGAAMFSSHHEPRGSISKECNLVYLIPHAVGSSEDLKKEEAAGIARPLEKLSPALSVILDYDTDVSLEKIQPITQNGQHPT

For the molecule `C[C@H]1c2cccc(C(C)(C)O)c2C[C@H](CO)N1C(=O)Cc1c(Cl)cccc1Cl` [DETQ, 2-(2,6-dichlorophenyl)-1-((1S,3R)-3-(hydroxymethyl)-5-(2-hydroxypropan-2-yl)-1-methyl-3,4-dihydroisoquinolin-2(1H)-yl)ethan-1-one], on dLight1.3bL143I, the Kb worked out at 17.7 nM, the “sensor response to DETQ in the absence of DA” value is “could not trigger a response” and the α factor was found to be 10.8. The “maximal fluorescent response to a saturating concentration of DA” value at dLight1.3bL143I (DA 100 µM, wide range of DETQ concentrations) is recorded as “not affected”. In addition, the “increase in DETQ potency versus dLight1.3b” value at dLight1.3bL143I (human, hek293 cells) is given as 3 fold. Besides, in assay [1], the “decay constant (tau) of DA signals” value is listed as “no effect” and the “peak DA release” value was “no effect”. Also, the “total locomotion or time spent in the center” value in the assay “Open field behavior” (tethered mice, DETQ 10 mg/kg) was “did not observe any effect”. In addition, the “locomotion in open field” value in “Open field behavior” (untethered mice, 45 min, DETQ 3, 10, 30 mg/kg i.p., cocaine 20 mg/kg) is “did not have a significant effect”. The “brain levels of the histamine metabolites” value in assay [2] (hD1 mice, same dose) is “significant elevations”. Besides, the “brain levels of the histamine metabolites” value in assay [2] (wild type mice, 10 mg/kg PO) is “did not change”.
